Experimental data published in US5563125A, “5'-deoxy-5'-(substituted)alkylthioribose compounds and their pharmaceutical compositions” (priority 1992, dated 1996).

Columns and labels:
[1] = tested on: A549 (human non-small cell lung carcinoma); test: In vitro evaluation, A549; format: cell-based; conditions: A549, medium B, 72 hours, solvent DMSO
Procedure: (§1) In vitro evaluations of the compound 5'-deoxy-5'-(monofluoroethylthio) adenosine (MFETA) were performed using the materials and conditions described in Tables 9 and 10.
(§2) (a) Basal medium + RPMI 1640 + 20 mM HEPES;
(§3) B--5% NuSerum IV + 5% FCS,
(§4) *Incubation or exposure time is determined by the doubling time of the
(§5) cell line such that each is exposed to the compound for 3-4 cell

[2] = tested on: MCF7 (human breast carcinoma); test: In vitro evaluation, MCF7; format: cell-based; conditions: MCF7, medium B, 72 hours, solvent DMSO
Procedure: as §1, §2, §3, §4, §5

[3] = tested on: PSN-1 (human pancreatic carcinoma); test: In vitro evaluation, PSN-1; format: cell-based; conditions: PSN1, PSN-1, medium C, 72 hours, solvent DMSO
Procedure: as §1, §2, §3, §4, §5

LOX (human melanoma) = test: In vitro evaluation, LOX; format: cell-based; conditions: medium B, 72 hours
Procedure: as §1
(§6) ^(a) Basal medium = RPMI 1640 + 20 mM HEPES + 2 mM Lglutamine
(§7) B = 5% FCS + 5% NuSerum IV

[4] = tested on: HT-29 (human colon carcinoma); test: In vitro evaluation, HT-29; format: cell-based; conditions: HT-29, medium B, 96 hours, solvent DMSO
Procedure: as §1, §2, §3, §4, §5

PANuT (human melanoma) = test: In vitro evaluation, PANuT; format: cell-based; conditions: medium B, 72 hours
Procedure: as §1, §6, §7

Ebey (human melanoma) = test: In vitro evaluation, Ebey; format: cell-based; conditions: medium B, 72 hours
Procedure: as §1, §6, §7

L5178Y leukemic cells = test: Antitumor effects in L5178Y leukemic mice; format: in vivo, DBA/2N mice
Procedure: The antitumor effects of MFETA were evaluated in DBA/2N mice (Charles River) who received i.p. transplants of 10^6 L1210 leukemic cells or 10^6 L5178Y leukemic cells on day 0 according to protocols described previously by Bernacki et al., Cancer Res. 47, 799, 1987. The increase in life span (% ILS) of treated animals relative to untreated, tumor-bearing animals was used as the measure of their therapeutic effectiveness at specified dose regimens.
^a MFETA was administered i.p. on days 1, 2, 3, 4, 5 following i.p.
implantation of 10^6 tumor cells on day 0.
^b % ILS is the percentage of increase in life span.

[5] = target: T1, Mouse Liver MTA Phosphorylase (Mus musculus, UniProt Q9CQ65); test: Mouse liver MTA phosphorylase substrate/inhibitor assay; format: biochemical
T1 sequence (Q9CQ65 1-283): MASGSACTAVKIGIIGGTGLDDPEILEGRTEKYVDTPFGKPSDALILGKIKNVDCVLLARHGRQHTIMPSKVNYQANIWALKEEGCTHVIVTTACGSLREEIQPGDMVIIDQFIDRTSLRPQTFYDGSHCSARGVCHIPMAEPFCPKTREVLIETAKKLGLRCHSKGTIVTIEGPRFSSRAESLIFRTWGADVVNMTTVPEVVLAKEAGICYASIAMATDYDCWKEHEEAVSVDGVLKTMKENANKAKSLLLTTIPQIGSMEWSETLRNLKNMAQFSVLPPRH
Procedure: ^a MTA phosphorylase activity was assayed as described in Sufrin et

[6] = tested on: T. b. brucei LAB 110 EATRO; test: In vivo antitrypanosomal activity, LAB EATRO mouse infection model; conditions: 7 days, miniosmotic pump
Procedure: ^a Animals were treated with surgically implanted miniosmotic pumps
loaded as per manufacturers instructions with MTA, HETA or MFETA suspende

[7] = tested on: L5178Y cells (MTA phosphorylase-containing); test: Growth inhibition of L5178Y cells; format: cell-based, mouse; conditions: Mus musculus, 48 h
Procedure: L1210, L5178Y and MOLT-4 cell lines were grown in RPMI 1640 and 10% Nu Serum (Collaborative Research Inc., Lexington, Mass.) and CCRF-CEM cells were grown in 10% Horse Serum (Gibco Laboratories, Grand Island, N.Y.) and maintained as previously described for suspension cultures by Pera et al. in Cancer Res. 46, 1148, 1986. Cell cultures (0.3×10^5 cells/ml) were treated with each compound at 0.1 to 1000 μM to determine the concentration that inhibited growth by 50% (IC50) at 48 hr for the L1210 and L5178Y cells and at 96 hr for the CCRF-CEM and MOLT-4 cells. The incubation times allowed approximately 4 cell doublings in each cell line. All compounds were freshly prepared prior to treatment by dissolving in DMSO and diluting in serum-free media. Cells were counted by electron particle counting (Model XF' Coulter Counter; Coulter Electronics, Hialeah, Fla.).
For each compound, the concentrations required to inhibit cell growth by 50% (IC50 values) are shown in Table 7 for two murine leukemic cell lines, L1210 and L5178Y [MTA phosphorylase-deficient and MTA phosphorylase-containing, respectively] and two human leukemic cell lines, CCRF-CEM and MOLT-4 [MTA phosphorylase-deficient and MTA phosphorylase-containing, respectively]. ETA, MFETA, HETA and PTA had lower IC50 values in the L5178Y cells than in the L1210 cells. […] This differential is consistent with the possibility that, in L5178Y cells, MFETA is cleaved by MTA phosphorylase to the growth inhibitory metabolite, 5-monofluoroethylthioribose-1-phosphate (MFETR-1-P).

**Q.** How did the IC50 [1] turn out when `Nc1ncnc2c1ncn2[C@@H]1O[C@H](CSCCF)[C@@H](O)[C@H]1O` [MFETA, 5'-deoxy-5'-(monofluoroethylthio)adenosine] was run?
**A.** 346 µM

**Q.** And the IC50 [2]?
**A.** 337 µM

**Q.** And the IC50 [3]?
**A.** 175 µM

**Q.** What about the IC50 (LOX (human melanoma)) of the same compound?
**A.** 268 ± 13 µM

**Q.** And the IC50 [4]?
**A.** 259 µM

**Q.** What about the IC50 (PANuT (human melanoma)) of the same compound?
**A.** 160 ± 8.1 µM

**Q.** What about the IC50 (Ebey (human melanoma)) of the same compound?
**A.** 442 ± 13 µM

**Q.** And the “% ILS (percentage of increase in life span)” value (L5178Y leukemic cells; 10 mg/kg i.p. days 1-5)?
**A.** 12%

**Q.** What about the “Mean Death Weight” value (L5178Y leukemic cells; 10 mg/kg i.p. days 1-5) of the same compound?
**A.** 19.7 g

**Q.** And the “Survival Mean ± SD” value (L5178Y leukemic cells; 10 mg/kg i.p. days 1-5)?
**A.** 9.0 ± 3 days

**Q.** What about the “Survival Median” value (L5178Y leukemic cells; 10 mg/kg i.p. days 1-5) of the same compound?
**A.** 9 days

**Q.** And the “Survival Range” value (L5178Y leukemic cells; 10 mg/kg i.p. days 1-5)?
**A.** 8 to 10 days

**Q.** And the “% ILS (percentage of increase in life span)” value (L5178Y leukemic cells; 50 mg/kg i.p. days 1-5)?
**A.** 37%

**Q.** And the “Mean Death Weight” value (L5178Y leukemic cells; 50 mg/kg i.p. days 1-5)?
**A.** 21.6 g

**Q.** What about the “Survival Mean ± SD” value (L5178Y leukemic cells; 50 mg/kg i.p. days 1-5) of the same compound?
**A.** 10.0 ± 6 days

**Q.** What about the “Survival Median” value (L5178Y leukemic cells; 50 mg/kg i.p. days 1-5) of the same compound?
**A.** 11 days

**Q.** What about the “Survival Range” value (L5178Y leukemic cells; 50 mg/kg i.p. days 1-5) of the same compound?
**A.** 8 to 11 days

**Q.** And the “% ILS (percentage of increase in life span)” value (L5178Y leukemic cells; 100 mg/kg i.p. days 1-5)?
**A.** 37%

**Q.** What about the “Mean Death Weight” value (L5178Y leukemic cells; 100 mg/kg i.p. days 1-5) of the same compound?
**A.** 23.1 g

**Q.** What about the “Survival Mean ± SD” value (L5178Y leukemic cells; 100 mg/kg i.p. days 1-5) of the same compound?
**A.** 10.5 ± 4 days

**Q.** And the “Survival Median” value (L5178Y leukemic cells; 100 mg/kg i.p. days 1-5)?
**A.** 11 days

**Q.** What about the “Survival Range” value (L5178Y leukemic cells; 100 mg/kg i.p. days 1-5) of the same compound?
**A.** 8 to 12 days

**Q.** What about the “% ILS (percentage of increase in life span)” value (L5178Y leukemic cells; 200 mg/kg i.p. days 1-5) of the same compound?
**A.** 62%

**Q.** What about the “Mean Death Weight” value (L5178Y leukemic cells; 200 mg/kg i.p. days 1-5) of the same compound?
**A.** 20.4 g

**Q.** And the “Survival Mean ± SD” value (L5178Y leukemic cells; 200 mg/kg i.p. days 1-5)?
**A.** 12.4 ± 9 days

**Q.** What about the “Survival Median” value (L5178Y leukemic cells; 200 mg/kg i.p. days 1-5) of the same compound?
**A.** 13 days

**Q.** And the “Survival Range” value (L5178Y leukemic cells; 200 mg/kg i.p. days 1-5)?
**A.** 9 to 14 days

**Q.** And the “% ILS (percentage of increase in life span)” value (L5178Y leukemic cells; 300 mg/kg i.p. days 1-5)?
**A.** -75%

**Q.** What about the “Mean Death Weight” value (L5178Y leukemic cells; 300 mg/kg i.p. days 1-5) of the same compound?
**A.** 18.4 g

**Q.** And the “Survival Mean ± SD” value (L5178Y leukemic cells; 300 mg/kg i.p. days 1-5)?
**A.** 2.6 ± 4 days

**Q.** What about the “Survival Median” value (L5178Y leukemic cells; 300 mg/kg i.p. days 1-5) of the same compound?
**A.** 2 days

**Q.** And the “Survival Range” value (L5178Y leukemic cells; 300 mg/kg i.p. days 1-5)?
**A.** 2 to 4 days

**Q.** What about the Ki ([5]; mouse liver MTA phosphorylase, read-out: K1) of the same compound?
**A.** 3.1 µM

**Q.** What about the “Substrate (% Control)” value ([5]; substrate activity relative to MTA) of the same compound?
**A.** 64 % Control

**Q.** What about the “% Cured” value ([6]; 10 mg/kg/day) of the same compound?
**A.** 0%

**Q.** What about the “MSD (mean survival in days of animals dying of infection)” value (“MSD” below) ([6]; 10 mg/kg/day) of the same compound?
**A.** 5.0 days

**Q.** And the “Number Cured Total” value ([6]; 10 mg/kg/day)?
**A.** 0/5

**Q.** What about the “% Cured” value ([6]; 25 mg/kg/day) of the same compound?
**A.** 40%

**Q.** And the “MSD” value ([6]; 25 mg/kg/day)?
**A.** 11.6 days

**Q.** What about the “Number Cured Total” value ([6]; 25 mg/kg/day) of the same compound?
**A.** 2/5

**Q.** And the “% Cured” value ([6]; 50 mg/kg/day)?
**A.** 0%

**Q.** And the “MSD” value ([6]; 50 mg/kg/day)?
**A.** 10.6 days

**Q.** And the “Number Cured Total” value ([6]; 50 mg/kg/day)?
**A.** 0/5

**Q.** And the “% Cured” value ([6]; 100 mg/kg/day)?
**A.** 40%

**Q.** What about the “MSD” value ([6]; 100 mg/kg/day) of the same compound?
**A.** 12.0 days

**Q.** And the “Number Cured Total” value ([6]; 100 mg/kg/day)?
**A.** 2/5

**Q.** What about the IC50 [7] of the same compound?
**A.** 60 ± 35 µM
